Where a SMILES comes first, the peptide text is derived from it.
The compounds below were run against T1, rh integrin α4β7 (Homo sapiens, UniProt P13612+P26010) (assay: α4β7-MAdCAM Competition ELISA). Details: thioether monomer peptides, Table 6; read-out: ELISA A4B7.
T1 construct: purchased R&D Systems 5397-A30
T1 sequence (P13612 34-977 limits assumed): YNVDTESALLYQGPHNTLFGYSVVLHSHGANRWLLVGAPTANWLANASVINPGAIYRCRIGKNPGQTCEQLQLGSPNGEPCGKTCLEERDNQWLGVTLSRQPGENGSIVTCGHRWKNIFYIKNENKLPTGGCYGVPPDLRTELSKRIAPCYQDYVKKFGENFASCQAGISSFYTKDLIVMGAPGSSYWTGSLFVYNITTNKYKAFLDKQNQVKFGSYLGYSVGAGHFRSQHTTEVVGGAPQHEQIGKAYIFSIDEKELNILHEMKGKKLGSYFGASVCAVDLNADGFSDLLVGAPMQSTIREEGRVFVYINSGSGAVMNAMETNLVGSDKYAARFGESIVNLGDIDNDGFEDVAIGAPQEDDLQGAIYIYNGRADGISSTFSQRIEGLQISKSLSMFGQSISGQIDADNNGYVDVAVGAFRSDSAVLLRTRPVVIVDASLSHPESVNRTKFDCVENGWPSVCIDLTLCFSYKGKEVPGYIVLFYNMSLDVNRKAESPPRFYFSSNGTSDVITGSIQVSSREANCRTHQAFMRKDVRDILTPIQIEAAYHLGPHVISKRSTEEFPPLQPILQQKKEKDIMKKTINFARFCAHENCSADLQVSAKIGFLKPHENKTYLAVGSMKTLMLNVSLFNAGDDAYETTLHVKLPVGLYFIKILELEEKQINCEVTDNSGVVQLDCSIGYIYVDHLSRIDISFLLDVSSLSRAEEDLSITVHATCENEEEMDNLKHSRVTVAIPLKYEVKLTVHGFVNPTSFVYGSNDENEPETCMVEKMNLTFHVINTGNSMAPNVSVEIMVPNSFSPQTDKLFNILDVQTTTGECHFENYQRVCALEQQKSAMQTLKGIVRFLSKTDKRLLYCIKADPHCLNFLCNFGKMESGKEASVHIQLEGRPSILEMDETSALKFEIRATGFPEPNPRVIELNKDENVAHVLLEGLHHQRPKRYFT
T1 sequence (P26010 20-723 limits assumed): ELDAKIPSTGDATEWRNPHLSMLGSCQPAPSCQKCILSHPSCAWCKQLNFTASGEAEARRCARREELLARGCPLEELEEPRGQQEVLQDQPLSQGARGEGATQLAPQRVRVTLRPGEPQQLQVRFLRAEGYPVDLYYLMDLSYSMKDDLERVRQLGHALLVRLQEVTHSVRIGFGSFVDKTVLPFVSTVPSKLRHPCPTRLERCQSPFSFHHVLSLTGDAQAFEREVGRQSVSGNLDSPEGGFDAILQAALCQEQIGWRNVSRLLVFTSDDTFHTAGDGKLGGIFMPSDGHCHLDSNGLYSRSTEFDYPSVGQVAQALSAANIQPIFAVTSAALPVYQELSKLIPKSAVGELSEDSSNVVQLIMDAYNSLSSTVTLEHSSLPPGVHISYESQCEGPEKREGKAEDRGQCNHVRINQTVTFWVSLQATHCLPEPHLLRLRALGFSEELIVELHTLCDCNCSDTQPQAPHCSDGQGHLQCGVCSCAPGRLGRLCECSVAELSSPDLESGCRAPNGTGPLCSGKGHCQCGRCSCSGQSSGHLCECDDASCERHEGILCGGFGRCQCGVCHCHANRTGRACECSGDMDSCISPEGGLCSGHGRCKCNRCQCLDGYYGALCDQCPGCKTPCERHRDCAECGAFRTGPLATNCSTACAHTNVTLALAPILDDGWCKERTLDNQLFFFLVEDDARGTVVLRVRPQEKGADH
Type: binding
In short: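 Recombinant human α4β7 captured on nickel-coated plates, then incubated 1 h at room temperature with serially diluted peptides (final top 10 μM) and 10 nM final MAdCAM-1 in Tris pH 7.6 buffer with 1 mM MnCl2 or MgCl2. Bound MAdCAM-1 detected with anti-human IgG1-HRP and TMB, absorbance at 450 nm.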

SMILES	IC50 [nM]
CC(C)C[C@@H]1NC(=O)[C@H]([C@@H](C)O)NC(=O)[C@H](CC(=O)O)NC(=O)[C@H](CO)NC(=O)[C@H](CCCNC(=N)N)N(C)C(=O)c2ccccc2CSC[C@@H](C(=O)N[C@@H](Cc2c[nH]c3ccccc23)C(=O)N[C@@H](CCC(=O)O)C(=O)N[C@H](CCCCN)C(N)=O)NC1=O [compound 55] (HELM PEPTIDE1{[meR].S.D.T.L.C.W.E.[dK].[am]}|CHEM1{[O=C(c1ccccc1C[*:2])[*:1]]}$PEPTIDE1,CHEM1,1:R1-1:R1|PEPTIDE1,CHEM1,6:R3-1:R2$$$V2.0)	< 25
CC(C)C[C@@H]1NC(=O)[C@H]([C@@H](C)O)NC(=O)[C@H](CC(=O)O)NC(=O)[C@H](CO)NC(=O)[C@H](CCCNC(=N)N)N(C)C(=O)c2ccccc2CSC(C)(C)[C@@H](C(=O)N[C@@H](Cc2cccc3ccccc23)C(=O)N[C@H](CCC(=O)O)C(=O)N(C)[C@@H](CCCCN)C(N)=O)NC1=O [compound 69] (HELM PEPTIDE1{[meR].S.D.T.L.[Pen].[O=C([C@H](Cc1cccc2ccccc12)N[*:1])[*:2]].[dE].[meK].[am]}|CHEM1{[O=C(c1ccccc1C[*:2])[*:1]]}$PEPTIDE1,CHEM1,1:R1-1:R1|PEPTIDE1,CHEM1,6:R3-1:R2$$$V2.0)	< 25
CC(=O)NCCCC[C@@H](NC(=O)[C@H](CCC(=O)O)NC(=O)[C@H](Cc1c[nH]c2ccccc12)NC(=O)[C@H]1NC(=O)[C@H](CC(C)C)NC(=O)[C@H]([C@@H](C)O)NC(=O)[C@H](CC(=O)O)NC(=O)[C@H](CO)NC(=O)[C@H](CCCNC(=N)N)N(C)C(=O)c2ccccc2CSC1(C)C)C(N)=O [compound 80] (HELM PEPTIDE1{[meR].S.D.T.L.[Pen].W.E.[dK].[am]}|PEPTIDE2{[ac]}|CHEM1{[O=C(c1ccccc1C[*:2])[*:1]]}$PEPTIDE1,PEPTIDE2,9:R3-1:R2|PEPTIDE1,CHEM1,1:R1-1:R1|PEPTIDE1,CHEM1,6:R3-1:R2$$$V2.0)	< 25
CC(=O)NCCCC[C@@H](NC(=O)[C@@H](CCC(=O)O)NC(=O)[C@H](Cc1c[nH]c2ccccc12)NC(=O)[C@H]1NC(=O)[C@H](CC(C)C)NC(=O)[C@H]([C@@H](C)O)NC(=O)[C@H](CC(=O)O)NC(=O)[C@H](CO)NC(=O)[C@H](CCCNC(=N)N)N(C)C(=O)c2ccccc2CSC1(C)C)C(N)=O [compound 81] (HELM PEPTIDE1{[meR].S.D.T.L.[Pen].W.[dE].[dK].[am]}|PEPTIDE2{[ac]}|CHEM1{[O=C(c1ccccc1C[*:2])[*:1]]}$PEPTIDE1,PEPTIDE2,9:R3-1:R2|PEPTIDE1,CHEM1,1:R1-1:R1|PEPTIDE1,CHEM1,6:R3-1:R2$$$V2.0)	< 25
CC(=O)NCCCC[C@@H](NC(=O)[C@H](CCC(=O)O)NC(=O)[C@H](Cc1cccc2ccccc12)NC(=O)[C@H]1NC(=O)[C@H](CC(C)C)NC(=O)[C@H]([C@@H](C)O)NC(=O)[C@H](CC(=O)O)NC(=O)[C@H](CO)NC(=O)[C@H](CCCNC(=N)N)N(C)C(=O)c2ccccc2CSC1(C)C)C(N)=O [compound 89] (HELM PEPTIDE1{[meR].S.D.T.L.[Pen].[O=C([C@H](Cc1cccc2ccccc12)N[*:1])[*:2]].E.[dK].[am]}|PEPTIDE2{[ac]}|CHEM1{[O=C(c1ccccc1C[*:2])[*:1]]}$PEPTIDE1,PEPTIDE2,9:R3-1:R2|PEPTIDE1,CHEM1,1:R1-1:R1|PEPTIDE1,CHEM1,6:R3-1:R2$$$V2.0)	< 25
CC(=O)NCCCC[C@@H](NC(=O)[C@@H](CCC(=O)O)NC(=O)[C@H](Cc1ccc(O)cc1)NC(=O)[C@H]1NC(=O)[C@H](CC(C)C)NC(=O)[C@H]([C@@H](C)O)NC(=O)[C@H](CC(=O)O)NC(=O)[C@H](CO)NC(=O)[C@H](CCCNC(=N)N)N(C)C(=O)c2ccccc2CSC1(C)C)C(N)=O [compound 91] (HELM PEPTIDE1{[meR].S.D.T.L.[Pen].Y.[dE].[dK].[am]}|PEPTIDE2{[ac]}|CHEM1{[O=C(c1ccccc1C[*:2])[*:1]]}$PEPTIDE1,PEPTIDE2,9:R3-1:R2|PEPTIDE1,CHEM1,1:R1-1:R1|PEPTIDE1,CHEM1,6:R3-1:R2$$$V2.0)	< 25
CC(C)C[C@@H]1NC(=O)[C@H]([C@@H](C)O)NC(=O)[C@H](CC(=O)O)NC(=O)[C@H](CO)NC(=O)[C@H](CCCNC(=N)N)N(C)C(=O)c2ccccc2CSC(C)(C)[C@@H](C(=O)N[C@@H](Cc2c[nH]c3ccccc23)C(=O)N[C@@H](CCC(=O)O)C(=O)N[C@@H](CN)C(N)=O)NC1=O [compound 92] (HELM PEPTIDE1{[meR].S.D.T.L.[Pen].W.E.[NC[C@H](N[*:1])C(=O)[*:2]].[am]}|CHEM1{[O=C(c1ccccc1C[*:2])[*:1]]}$PEPTIDE1,CHEM1,1:R1-1:R1|PEPTIDE1,CHEM1,6:R3-1:R2$$$V2.0)	< 25
CC(C)C[C@@H]1NC(=O)[C@H]([C@@H](C)O)NC(=O)[C@H](CC(=O)O)NC(=O)[C@H](CO)NC(=O)[C@H](CCCNC(=N)N)N(C)C(=O)c2ccccc2CSC(C)(C)[C@@H](C(=O)N[C@@H](Cc2c[nH]c3ccccc23)C(=O)N[C@@H](CCC(=O)O)C(=O)N[C@@H](CCN)C(N)=O)NC1=O [compound 93] (HELM PEPTIDE1{[meR].S.D.T.L.[Pen].W.E.[Dab].[am]}|CHEM1{[O=C(c1ccccc1C[*:2])[*:1]]}$PEPTIDE1,CHEM1,1:R1-1:R1|PEPTIDE1,CHEM1,6:R3-1:R2$$$V2.0)	< 25
CC(C)C[C@@H]1NC(=O)[C@H]([C@@H](C)O)NC(=O)[C@H](CC(=O)O)NC(=O)[C@H](CO)NC(=O)[C@H](CCCNC(=N)N)N(C)C(=O)c2ccccc2CSC(C)(C)[C@@H](C(=O)N[C@@H](Cc2c[nH]c3ccccc23)C(=O)N[C@H](CCC(=O)O)C(=O)N[C@@H](CN)C(N)=O)NC1=O [compound 94] (HELM PEPTIDE1{[meR].S.D.T.L.[Pen].W.[dE].[NC[C@H](N[*:1])C(=O)[*:2]].[am]}|CHEM1{[O=C(c1ccccc1C[*:2])[*:1]]}$PEPTIDE1,CHEM1,1:R1-1:R1|PEPTIDE1,CHEM1,6:R3-1:R2$$$V2.0)	< 25
CC(C)C[C@@H]1NC(=O)[C@H]([C@@H](C)O)NC(=O)[C@H](CC(=O)O)NC(=O)[C@H](CO)NC(=O)[C@H](CCCNC(=N)N)N(C)C(=O)c2ccccc2CSC(C)(C)[C@@H](C(=O)N[C@@H](Cc2c[nH]c3ccccc23)C(=O)N[C@H](CCC(=O)O)C(=O)N[C@@H](CCN)C(N)=O)NC1=O [compound 95] (HELM PEPTIDE1{[meR].S.D.T.L.[Pen].W.[dE].[Dab].[am]}|CHEM1{[O=C(c1ccccc1C[*:2])[*:1]]}$PEPTIDE1,CHEM1,1:R1-1:R1|PEPTIDE1,CHEM1,6:R3-1:R2$$$V2.0)	< 25
CC(C)C[C@@H]1NC(=O)[C@H]([C@@H](C)O)NC(=O)[C@H](CC(=O)O)NC(=O)[C@H](CO)NC(=O)[C@H](CCCNC(=N)N)N(C)C(=O)c2ccccc2CSC(C)(C)[C@@H](C(=O)N[C@@H](Cc2c[nH]c3ccccc23)C(=O)N[C@@H](CCC(=O)O)C(N)=O)NC1=O [compound 96] (HELM PEPTIDE1{[meR].S.D.T.L.[Pen].W.E.[am]}|CHEM1{[O=C(c1ccccc1C[*:2])[*:1]]}$PEPTIDE1,CHEM1,1:R1-1:R1|PEPTIDE1,CHEM1,6:R3-1:R2$$$V2.0)	< 25

Same assay, conditions: thioether peptide dimers, Table 7; read-out: ELISA A4B7

SMILES	IC50 [nM]
CC(C)C[C@@H]1NC(=O)[C@H]([C@@H](C)O)NC(=O)[C@H](CC(=O)O)NC(=O)[C@H](CO)NC(=O)[C@H](CCCNC(=N)N)N(C)C(=O)C(C)SC[C@@H](C(=O)N[C@@H](Cc2c[nH]c3ccccc23)C(=O)N[C@H](CCCCN)C(N)=O)NC1=O (single isomer, unassigned) [compound 144]	< 25

From patent publication US20260217767A1, “NOVEL A4B7 THIOETHER PEPTIDE DIMER ANTAGONISTS” (Protagonist Therapeutics, Inc., priority 2014, published 2026)
